Experimental data published in ChEMBL document CHEMBL1121395, “[5-(N4,N4-Dimethylasparagine),8-lysine]vasopressin: the first 5-position neurohypophyseal hormone analogue to retain to retain significant antidiuretic potency” (1980).

Columns and labels:
[1] = tested on: Rattus norvegicus; test: In vivo antidiuretic potency of compound was determined in rat
[2] = organism: Rattus norvegicus; test: In vitro uterotonic potency of compound was determined in rat; format: functional
[3] = organism: Gallus gallus; test: Avian vasodepressor potency of compound was determined
[4] = organism: Rattus norvegicus; test: Pressor potency of compound was determined in rat; format: functional

Compound	Activity [1]	Activity [2]	Activity [3]	Activity [4]
NCCCC[C@H](NC(=O)[C@@H]1CCCN1C(=O)[C@@H]1CSSC[C@H](N)C(=O)N[C@@H](Cc2ccc(O)cc2)C(=O)N[C@@H](Cc2ccccc2)C(=O)N[C@@H](CCC(N)=O)C(=O)N[C@@H](CC(N)=O)C(=O)N1)C(=O)NCC(N)=O	203 mg	–	–	–
CN(C)C(=O)C[C@@H]1NC(=O)[C@H](CCC(N)=O)NC(=O)[C@H](Cc2ccccc2)NC(=O)[C@H](Cc2ccc(O)cc2)NC(=O)[C@@H](N)CSSC[C@@H](C(=O)N2CCC[C@H]2C(=O)N[C@@H](CCCCN)C(=O)NCC(N)=O)NC1=O	5.5 mg	< 0.05 mg	0.39 mg	2.55 mg
